Results from patent US9957270B2, “Fused pyrimidine-based hydroxamate derivatives” (Agency for Science, Technology and Research, priority 2014, dated 2018).

Assays:
[1] = biological target: T1, p110α(E545K)/p85α (Homo sapiens, UniProt P42336, E545K); experiment: Kinase enzyme assay (ADP-Glo), PI3Kα (E545K); type: biochemical; details: read-out: In Vitro Enzymatic IC50 PI3Kα (E545K)
T1 construct: purchased SignalChem P27-15H

[2] = biological target: HDAC1 (Homo sapiens, UniProt Q13547); experiment: HDAC enzyme assay, recombinant HDAC1
[3] = biological target: T2, HDAC6 (Homo sapiens, UniProt Q9UBN7); experiment: HDAC enzyme assay, recombinant HDAC6
T2 sequence (Q9UBN7 1-1215): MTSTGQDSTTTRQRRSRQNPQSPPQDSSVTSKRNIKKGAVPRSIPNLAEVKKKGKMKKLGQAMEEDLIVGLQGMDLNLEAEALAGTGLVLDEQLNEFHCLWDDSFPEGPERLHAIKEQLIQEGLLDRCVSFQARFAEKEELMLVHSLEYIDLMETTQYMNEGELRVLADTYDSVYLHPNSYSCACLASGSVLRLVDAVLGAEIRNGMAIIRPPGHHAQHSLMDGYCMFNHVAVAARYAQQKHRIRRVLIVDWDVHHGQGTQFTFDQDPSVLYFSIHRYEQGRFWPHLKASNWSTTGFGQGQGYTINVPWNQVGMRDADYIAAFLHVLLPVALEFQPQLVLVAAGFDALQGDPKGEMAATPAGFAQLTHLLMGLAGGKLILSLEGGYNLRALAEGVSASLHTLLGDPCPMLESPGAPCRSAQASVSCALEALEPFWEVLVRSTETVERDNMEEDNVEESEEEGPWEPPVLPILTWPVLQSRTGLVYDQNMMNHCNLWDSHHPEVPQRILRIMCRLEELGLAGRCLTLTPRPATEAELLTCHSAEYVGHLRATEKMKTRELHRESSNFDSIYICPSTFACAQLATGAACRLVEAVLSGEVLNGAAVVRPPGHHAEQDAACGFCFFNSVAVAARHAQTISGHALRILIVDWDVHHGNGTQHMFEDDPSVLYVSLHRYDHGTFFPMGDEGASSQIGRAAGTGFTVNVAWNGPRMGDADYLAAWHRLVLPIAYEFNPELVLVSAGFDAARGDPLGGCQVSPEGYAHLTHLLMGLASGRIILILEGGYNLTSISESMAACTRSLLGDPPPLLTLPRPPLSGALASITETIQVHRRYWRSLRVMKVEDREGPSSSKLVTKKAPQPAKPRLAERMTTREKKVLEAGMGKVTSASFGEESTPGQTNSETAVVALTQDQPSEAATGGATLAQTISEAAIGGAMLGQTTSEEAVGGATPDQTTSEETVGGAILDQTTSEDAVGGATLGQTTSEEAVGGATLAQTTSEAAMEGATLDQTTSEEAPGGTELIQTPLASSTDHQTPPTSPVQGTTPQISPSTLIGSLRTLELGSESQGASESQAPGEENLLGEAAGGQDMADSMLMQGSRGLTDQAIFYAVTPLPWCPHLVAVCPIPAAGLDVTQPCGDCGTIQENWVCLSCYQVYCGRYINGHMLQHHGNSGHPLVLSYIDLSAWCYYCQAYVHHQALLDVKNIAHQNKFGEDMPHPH

[4] = biological target: HDAC (HeLa nuclear extracts); experiment: HDAC enzyme assay, HeLa nuclear extracts; details: read-out: In Vitro Enzymatic IC50 HDAC (HeLa)
[5] = test system: MV-4-11 cells; experiment: Caspase activity assay, MV-4-11 cells; type: cell-based, human; details: MV-4-11 cells; for EC50: maximal activity at 24 h, read-out: EC50 induction of caspase activity
Experimental: (§1) Cells are cultivated and treated with test compounds in 96-well plates as described in the above Cell Culture and Anti-Proliferative Assays section. […] The incubation time can be extended up to overnight (18 h) if the Caspase activity is low. Staurosporine is used as positive control.
(§2) Y Axis is expressed as Mean±SD if applicable.

[6] = test system: PC-3 cells; experiment: Caspase activity assay, PC-3 cells; type: cell-based, human; details: maximal caspase activity at 48 h
Experimental: as §1, §2

[7] = test system: MV-4-11 cells; experiment: Cell viability/cytotoxicity assay (CytoTox-Glo), MV-4-11 cells; type: cell-based, human; details: MV-4-11 cells, 48 h, CytoTox-Glo, read-out: cell death potency EC50
Experimental: Cells are cultivated and treated with test compounds in 96-well plates as described in the above Cell Culture and Anti-Proliferative Assays section, the content of dead cells and viable cells are measured using CytoTox-Glo™ Cytotoxicity Assay kit (Promega) per manufacture's protocol. Briefly, CytoTox-Glo™ Cytotoxicity Assay Reagent (48 μL/well) is added to the cells in 96-well plate and the luminescent signals are recorded using a BioTek Synergy H4 reader, then Lysis Reagent (48 μL/well) is added and the luminescent signals derived from both dead and viable cells are recorded. Viability can be calculated by subtracting the luminescent signal resulting from experimental cell death from total luminescent values. Staurosporine is used as positive control.
Fold of cell death of treated vs untreated was monitored at different time points. […] Y Axis is expressed as Mean±SD if applicable.

[8] = test system: PLC/PRF/5; experiment: cells; details: Homo sapiens, PLC-PRF-5, read-out: In Vitro Cellular IC50 PLC/PRF/5
Experimental: (§3) Cells were cultivated at 37° C., 5% CO2 in media containing 10% FBS and 2 mM glutamine Cells were routinely monitored with MycoAlert™ PLUS Mycoplasma Detection Kit (Lonza Walkersville, Inc.) to make sure they were mycoplasma free. Antibiotics (100 U/mL of penicillin and 100 μg/mL of streptomycin) were only added to the media used for compound dilution and cells in 96-well assay plates.
(§4) For a typical screening experiment, cells (100 μL/well) are inoculated into 96 well microtiter plates at plating densities ranging from 2,000 to 30,000 cells/well depending on the doubling time of individual cell lines and assay linearity. […] Suspension cells are treated with test compounds immediately after cell inoculation.
(§5) Test compounds are serially diluted (3-fold or 4-fold, 8-concentration) using the same media and added to the plates (15 to 25 μL/well). After 72 h of cultivation, the plates are assayed for cell cytotoxicity/viability by using the following two methods.
(§6) Cells in plates are fixed with cold trichloroacetic acid (TCA) (50% w/v in DI water, 1/4 volume of the medium in each well), and incubated at 4° C. for 1 h (adherent cells) or 2 h (suspension cells). The plates are washed 5 times (tap water×3, DI water×2) and air-dried. […]
(§7) The plates are added CellTiter-Glo® Reagent (95 μL/well) and read the luminescence on a BioTek H4 reader per manufacture's protocol. […]

[9] = test system: Raji; experiment: Anti-proliferative assay (cellular IC50), Raji; details: Homo sapiens, read-out: In Vitro Cellular IC50 Raji
Experimental: as §3, §4, §5, §6, §7

[10] = test system: HuH-7; experiment: Anti-proliferative assay (cellular IC50), HuH-7; details: Homo sapiens, Huh-7, read-out: In Vitro Cellular IC50 HuH-7
Experimental: as §3, §4, §5, §6, §7

[11] = test system: Daudi; experiment: Anti-proliferative assay (cellular IC50), Daudi; details: Homo sapiens, read-out: In Vitro Cellular IC50 Daudi
Experimental: as §3, §4, §5, §6, §7

[12] = test system: U138MG; experiment: Anti-proliferative assay (cellular IC50), U138MG; details: Homo sapiens, U138-MG, read-out: In Vitro Cellular IC50 U138MG
Experimental: as §3, §4, §5, §6, §7

[13] = test system: HCCLM3; experiment: Anti-proliferative assay (cellular IC50), HCCLM3; details: Homo sapiens, HCCLM3, read-out: In Vitro Cellular IC50 HCCLM3
Experimental: as §3, §4, §5, §6, §7

[14] = test system: HEL9217; experiment: Anti-proliferative assay (cellular IC50), HEL9217; details: Homo sapiens, HEL 92.1.7, read-out: In Vitro Cellular IC50 HEL9217
Experimental: as §3, §4, §5, §6, §7

[15] = test system: NCI-H460; experiment: Anti-proliferative assay (cellular IC50), NCI-H460; details: Homo sapiens, NCI-H460, read-out: In Vitro Cellular IC50 NCI-H460
Experimental: as §3, §4, §5, §6, §7

HDAC1, sequence (Q13547 whole entry): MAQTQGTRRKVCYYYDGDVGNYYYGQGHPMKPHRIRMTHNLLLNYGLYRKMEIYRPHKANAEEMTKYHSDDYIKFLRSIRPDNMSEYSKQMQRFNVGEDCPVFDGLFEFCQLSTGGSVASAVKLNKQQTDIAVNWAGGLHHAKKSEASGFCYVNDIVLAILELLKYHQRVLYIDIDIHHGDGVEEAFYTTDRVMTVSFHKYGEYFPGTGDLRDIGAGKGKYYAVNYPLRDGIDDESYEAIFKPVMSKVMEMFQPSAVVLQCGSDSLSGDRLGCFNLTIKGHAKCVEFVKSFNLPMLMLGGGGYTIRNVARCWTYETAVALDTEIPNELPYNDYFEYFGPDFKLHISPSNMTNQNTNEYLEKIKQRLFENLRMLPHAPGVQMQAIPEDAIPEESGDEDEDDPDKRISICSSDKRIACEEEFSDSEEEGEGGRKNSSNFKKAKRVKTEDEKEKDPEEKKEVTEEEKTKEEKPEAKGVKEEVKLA
T1 sequence (P42336 whole entry E545K): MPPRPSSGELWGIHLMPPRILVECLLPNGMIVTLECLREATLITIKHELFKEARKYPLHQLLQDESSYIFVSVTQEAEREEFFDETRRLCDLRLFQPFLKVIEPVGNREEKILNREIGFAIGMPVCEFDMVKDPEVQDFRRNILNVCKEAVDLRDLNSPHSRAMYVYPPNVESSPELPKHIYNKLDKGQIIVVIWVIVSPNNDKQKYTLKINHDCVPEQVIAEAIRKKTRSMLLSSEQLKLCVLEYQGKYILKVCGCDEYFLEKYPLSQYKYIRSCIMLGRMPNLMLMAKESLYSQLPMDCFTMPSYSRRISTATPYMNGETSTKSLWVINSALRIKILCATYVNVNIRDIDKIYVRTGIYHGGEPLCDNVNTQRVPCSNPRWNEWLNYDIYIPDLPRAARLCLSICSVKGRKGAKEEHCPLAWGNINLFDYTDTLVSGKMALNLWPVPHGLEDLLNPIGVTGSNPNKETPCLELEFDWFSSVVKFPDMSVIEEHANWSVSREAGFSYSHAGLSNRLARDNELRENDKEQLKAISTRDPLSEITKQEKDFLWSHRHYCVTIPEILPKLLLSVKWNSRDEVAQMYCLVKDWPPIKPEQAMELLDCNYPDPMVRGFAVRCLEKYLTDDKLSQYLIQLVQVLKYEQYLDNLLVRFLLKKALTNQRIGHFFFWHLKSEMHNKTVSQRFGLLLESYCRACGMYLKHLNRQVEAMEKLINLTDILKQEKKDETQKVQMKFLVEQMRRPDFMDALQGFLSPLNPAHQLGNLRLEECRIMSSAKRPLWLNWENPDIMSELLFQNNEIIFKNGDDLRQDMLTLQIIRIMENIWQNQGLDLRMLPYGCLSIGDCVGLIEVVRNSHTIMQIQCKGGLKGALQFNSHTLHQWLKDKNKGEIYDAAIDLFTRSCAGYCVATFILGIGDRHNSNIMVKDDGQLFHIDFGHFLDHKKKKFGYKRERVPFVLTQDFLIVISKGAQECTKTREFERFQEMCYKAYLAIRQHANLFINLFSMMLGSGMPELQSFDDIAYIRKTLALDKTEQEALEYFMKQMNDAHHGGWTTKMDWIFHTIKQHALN
T1 sequence (P27986 whole entry partner): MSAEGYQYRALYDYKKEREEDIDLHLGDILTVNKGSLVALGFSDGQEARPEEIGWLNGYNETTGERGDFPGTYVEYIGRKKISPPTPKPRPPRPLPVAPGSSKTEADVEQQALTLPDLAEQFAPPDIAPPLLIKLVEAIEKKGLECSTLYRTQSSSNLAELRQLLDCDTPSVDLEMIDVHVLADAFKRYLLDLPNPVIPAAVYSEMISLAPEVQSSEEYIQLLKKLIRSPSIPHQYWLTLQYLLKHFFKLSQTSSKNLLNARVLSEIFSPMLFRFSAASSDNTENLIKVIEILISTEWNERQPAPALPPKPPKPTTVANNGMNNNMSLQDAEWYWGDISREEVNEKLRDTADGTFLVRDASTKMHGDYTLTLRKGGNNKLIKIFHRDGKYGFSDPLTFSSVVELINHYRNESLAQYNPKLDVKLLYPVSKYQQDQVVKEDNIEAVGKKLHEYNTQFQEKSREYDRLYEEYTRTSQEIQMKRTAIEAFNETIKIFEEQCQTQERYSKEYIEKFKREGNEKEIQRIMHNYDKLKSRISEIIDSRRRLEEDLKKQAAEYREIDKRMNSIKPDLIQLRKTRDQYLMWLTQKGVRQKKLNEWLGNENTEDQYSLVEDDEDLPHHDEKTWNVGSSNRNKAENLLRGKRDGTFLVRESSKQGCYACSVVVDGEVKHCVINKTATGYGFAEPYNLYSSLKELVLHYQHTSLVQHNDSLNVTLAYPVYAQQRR

IC50 [1] | IC50 [2] | IC50 [3] | IC50 [4] | EC50 ([5]; Homo sapiens, MV4-11) | IC50 [8] | IC50 [9] | IC50 [10] | IC50 [11] | IC50 [13] | IC50 [15] | EC50 [5] | Structure (SMILES) | Induction of caspase activity (comparison) [5] | Induction of caspase activity (comparison) [6] | EC50 ([7]; Homo sapiens, MV4-11) | IC50 [12] | IC50 [14] | EC50 [7]
0.01 to 0.1 µM | 0.01 to 0.1 µM | 0.01 to 0.1 µM | 0.1 to 1 µM |  |  |  |  |  |  |  |  | CCn1c(CN(C)Cc2ccc(C(=O)NO)cc2)nc2c(N3CCOCC3)nc(-c3cnc(N)nc3)nc21 [compound 7] |  |  |  |  |  | 
 |  |  |  | 12.7 µM | 2 to 10 µM | 2 to 10 µM | 0.5 to 2 µM | < 0.5 µM | 0.5 to 2 µM | < 0.5 µM |  | CS(=O)(=O)N1CCN(Cc2cc3nc(-c4cccc5[nH]ncc45)nc(N4CCOCC4)c3s2)CC1 [GDC-0941, reference compound] | very weak activity and potency | very weak activity | 2.75 µM | 0.5 to 2 µM | 2 to 10 µM | 
1 to 10 µM | 0.01 to 0.1 µM | 0.01 to 0.1 µM | 0.01 to 0.1 µM |  | 0.5 to 2 µM | 0.5 to 2 µM | 0.5 to 2 µM | < 0.5 µM | 2 to 10 µM | 0.5 to 2 µM | 0.52 µM | CC(C)n1cnc2c(-c3cccc(OCCCC(=O)NO)c3)nc(N3CCOCC3)nc21 [compound 1] | more potent than vorinostat | more potent than vorinostat |  | 0.5 to 2 µM | 0.5 to 2 µM | 0.19 µM
